Reference: patent US12146143B2, “Method for producing transformed plant and transformation agent” (priority 2019, dated 2024)

What was measured:
[1] = test system: calluses of the mutant ghy; assay: Redifferentiation from calluses with plant hormones; type: cell-based, Chenopodium quinoa
Protocol: A medium was produced by partially modifying spinach redifferentiation medium composition reported in the literature (Jinhua Bao (2009) Establishment of Transformation System for Spinach based on Agrobacterium Method and Introduction of Useful Gene, Chiba University Graduate School doctoral dissertation), and was used in the experiment (Table 2). Non-transformed calluses induced from seedling sections of the Kd variety were cultured under preset conditions shown in Table 13. A “+” group for the redifferentiation inducing light condition was cultured in an incubator at 20° C. under 8-h light/16-h dark conditions, and a “−” group was placed in a steel can in an incubator under the same conditions, and was cultured under a light-shielding condition. In groups with GA concentrations of 1 and 2, non-transformed calluses were plated on redifferentiation media supplemented with gibberellin at 1 mg/L and 2 mg/L, respectively.
Transformed calluses were successfully formed in the mutant ghy variety incapable of synthesizing betalain pigments. In view of this, an attempt was made to induce redifferentiation from calluses of the mutant ghy. 2,4-Dichlorophenoxyacetic acid (2,4-D) serving as a plant hormone having an auxin-like action, and benzyladenine and kinetin each serving as a plant hormone having a cytokinin-like action were combined at various concentrations, and redifferentiation was attempted. […] In addition, when the concentrations of both of 2,4-D and the cytokinin-like plant hormone (benzyladenine or kinetin) were increased, hard and rounded calluses were obtained. […] However, redifferentiation of any other organ was not found.

[2] = test system: quinoa (Kd, ghy, rebc, and ghy/rebc); assay: Floral dip/non-cutting-sealing method using improved bacterium, GUS staining of female organs; type: in vivo, Chenopodium quinoa; details: mutant ghy/rebc
Protocol: Bacteria used in the experiment were streaked on LB solid medium supplemented with 100 mg/L kanamycin and 100 mg/L hygromycin, and was cultured at 26° C. under a 24-h dark condition for 2 days (Table 3). The proliferated bacteria were transferred to 50 mL of LB liquid medium supplemented with 100 mg/L kanamycin and 100 mg/L hygromycin (in a 300 mL Erlenmeyer flask), and were cultured using a shaking thermostatic water bath BW201 under the conditions of 26° C., about 24 hours, and about 130 rpm. After the culture, the bacterial culture suspension (OD600=about 2.0) was transferred to a 50 mL conical tube, and centrifuged using Mx-301 Highspeed Refrigerated Micro Centrifuge (10 minutes, […]). The supernatant was discarded, followed by addition of 20 mL of a 5% (w/v) sucrose solution containing Silwet L-77 and resuspension using VORTEX-GENIE 2 to produce a bacterial suspension (results shown in Example 1 and results shown in Example 3 were obtained by inoculation experiments using Silwet L-77 at 0.02% (v/v) and 0.04% (v/v), respectively). At the time of inoculation with the bacterial suspension, quinoa to be used was placed in a sealed container (Mippail (Fuji System Pack, Tokyo, Japan)) filled with water, and the bacterial suspension was dropped onto an ear using P200 Pipetman (Gilson, Manhattan, NY, USA). […]

c1coc(CNc2ncnc3[nH]cnc23)c1 [kinetin]
Elongation of adventitious roots ([1]; medium containing only 1 mg/L kinetin): showed remarkable elongation of adventitious roots

c1ccc(CNc2ncnc3nc[nH]c23)cc1 [benzyladenine]
Colour of calluses ([1]; calluses plated in media containing the hormone): turned darker green | Redifferentiation of adventitious roots ([1]; medium containing only 1 mg/L or 2 mg/L benzyladenine): adventitious roots were redifferentiated

CC1=CC(=O)CC(C)(C)[C@@]1(O)/C=C/C(C)=C\C(=O)O [ABA, Abscisic acid]
Individuals exhibiting female organ-specific GUS expression ([2]; 500 mM ABA added to suspension of MAFF311303pTiMAFF301276ΔT-DNA, without cutting-sealing): 60% | Female organ-specific GUS expression ratio relative to the case of adding no ABA ([2]; 500 mM ABA vs no ABA): 6 times

O=C(O)COc1ccc(Cl)cc1Cl [2,4-D, 2,4-Dichlorophenoxyacetic acid]
Redifferentiation of adventitious roots ([1]; medium containing only 0.01 mg/L or 0.1 mg/L 2,4-D): adventitious roots were redifferentiated
